Holding throughout (assay type): cell-based
Experiment [1] relates to M. abscessus ATCC 19977. As to the kind of experiment: MIC, resazurin microtiter assay. To be noted: Mycobacteroides abscessus, ATCC19977; Mueller Hinton II; read-out: MIC M. abscessus ATCC 19977.
The subject of experiment [2] is M. abscessus DCI #21. The experiment is described as follows: MIC, resazurin microtiter assay. To be noted: Mycobacteroides abscessus; Mueller Hinton II; read-out: MIC M. abscessus DCI #21. In general terms: The colour change of resazurin is a common sign of viable cells or microbes.
The subject of experiment [3] is M. massiliense CIP 108297. The experiment is described as follows: MIC, resazurin microtiter assay. The settings on record: Mycobacteroides abscessus, CIP108297, Mueller Hinton II; read-out: MIC M. massiliense CIP 108297.
For experiment [4], the system named is M. massiliense CRM 0019. As to the kind of experiment: MIC, resazurin microtiter assay. The settings on record: Mycobacteroides abscessus, CRM0019, Mueller Hinton II; read-out: MIC M. massiliense CRM 0019.
Experiment [5] deals with M. bolletii ATCC 14472. The experiment is described as follows: MIC, resazurin microtiter assay. To be noted: Mycobacteroides abscessus, ATCC14472, Mueller Hinton II; read-out: MIC M. bolletii ATCC 14472.
Experiment [6] has as its system M. chelonae ATCC 35752. The experiment is described as follows: MIC, resazurin microtiter assay. The settings on record: Mycobacteroides chelonae, ATCC35752, Mueller Hinton II; read-out: MIC M. chelonae ATCC 35752.
Experiment [7] deals with M. tuberculosis H37Rv mc^26206. As to the kind of experiment: microbe, parasite or virus in culture. To be noted: Mycobacterium tuberculosis, H37RV; read-out: MIC M. tb H37 Rv (mc2-6206).
The subject of experiment [8] is M. smegmatis mc^2155. The experiment is described as follows: MIC, resazurin microtiter assay. To be noted: Mycolicibacterium smegmatis, MC^2155, 7H9-ADC-0.05% Tween 80; read-out: MIC M. smeg. mc^2155.
Experiment [9] concerns M. avium 104. The experiment is described as follows: MIC, resazurin microtiter assay. To be noted: Mycobacterium avium, 104; Mueller Hinton II; read-out: MIC M. avium 104.
Experiment [10] concerns M. intracellulare 1956. The experiment is described as follows: MIC, resazurin microtiter assay. To be noted: Mueller Hinton II; read-out: MIC M. avium Intracellulare 1956.
The test system of experiment [11] is M. xenopi WT. As to the kind of experiment: MIC, resazurin microtiter assay. The settings on record: Mycobacterium xenopi, Mueller Hinton II; read-out: MIC M. xenopi WT.

Molecules are shown by their SMILES. ≈ marks a conversion by molar mass, not a printed value.

With `CC1CCC(NC(=O)c2cc3ccccc3[nH]2)CC1` (centres unmarked) [Compound 14, N-((1s,4s)-4-methylcyclohexyl)-1H-indole-2-carboxamide], the MIC in [1], in experiment [2], in experiment [3], in experiment [4], in [5] and in experiment [6] was > 32 µg/mL in each case. In addition, the values for the MIC in experiment [7] and in experiment [8] were > 10 µg/mL and > 25 µg/mL, respectively.

As to `Cc1cc(C)c2cc(C(=O)NC34CC5CC(CC(C5)C3)C4)[nH]c2c1` [Compound 20, N-1-adamantyl-4,6-dimethyl-1H-indole-2-carboxamide], the MIC was > 32 µg/mL in [1]; 32 µg/mL (≈ 99.2 µM) in experiment [2]; > 32 µg/mL in experiment [3]; > 32 µg/mL in [4]; > 32 µg/mL in [5]; > 32 µg/mL in experiment [6]. Further, the MIC in [8] is 1.25 to 2.5 µg/mL (≈ 3.88 to 7.75 µM); in experiment [9], > 32 µg/mL; in experiment [10], > 32 µg/mL; in experiment [11], > 32 µg/mL.

As to `O=C(NC1CCCCC1)c1cc2ccccc2[nH]1` [Compound 12, N-cyclohexyl-1H-indole-2-carboxamide], the MIC in [1], in experiment [2], in experiment [3], in [4], in experiment [5] and in experiment [6] was > 32 µg/mL each time. Moreover, the MIC in experiment [7] was > 10 µg/mL; in experiment [8], > 25 µg/mL.

For the molecule `Cc1cc(C)c2cc(C(=O)NC3CCC(C)CC3)[nH]c2c1` (centres unmarked) [Compound 29, 4,6-dimethyl-N-((1s,4s)-4-methylcyclohexyl)-1H-indole-2-carboxamide], the MIC in experiment [1], in experiment [2], in experiment [3], in [4], in experiment [5] and in experiment [6] was ≤ 0.06 µg/mL in each case. The MIC in experiment [8] is > 20 µg/mL; in experiment [9], > 32 µg/mL; in experiment [10], > 32 µg/mL; in experiment [11], 0.25 to 1 µg/mL (≈ 0.879 to 3.52 µM).

For `O=C(NCc1cccc(Cl)c1)c1cc2ccccc2[nH]1` [Compound 19, N-(3-chlorobenzyl)-1H-indole-2-carboxamide], the MIC in experiment [1], in experiment [2], in [3], in experiment [4], in experiment [5] and in experiment [6] was > 32 µg/mL throughout. Moreover, the MIC in experiment [7] was > 5 µg/mL; in experiment [8], > 20 µg/mL.

With `CCCCCCCCNC(=O)c1cc2ccccc2[nH]1` [Compound 18, N-octyl-1H-indole-2-carboxamide], the MIC in experiment [1], in experiment [2], in [3], in experiment [4], in experiment [5] and in [6] was > 32 µg/mL throughout. In addition, the MIC in [7] was > 10 µg/mL; in experiment [8] it was > 25 µg/mL.

With `Cc1cc(C)c2cc(C(=O)NC3C4CC5CC(C4)CC3C5)[nH]c2c1` (centres unmarked) [Compound 24, N-2-adamantyl-4,6-dimethyl-1H-indole-2-carboxamide], the MIC in [1], in experiment [2], in experiment [3], in experiment [4], in experiment [5] and in experiment [6] was > 32 µg/mL throughout. The MIC was > 20 µg/mL in experiment [8], > 32 µg/mL in experiment [9], > 32 µg/mL in [10] and 0.5 to 1 µg/mL (≈ 1.55 to 3.1 µM) in experiment [11].

In the case of `O=C(NC1CCCC1)c1cc2ccccc2[nH]1` [Compound 13, N-cyclopentyl-1H-indole-2-carboxamide], the MIC in experiment [1], in [2], in [3], in [4], in [5] and in [6] was > 32 µg/mL in each case. Also, the values for the MIC in experiment [7] and in [8] were > 10 µg/mL and > 25 µg/mL, respectively.

Take `Cc1cc(C)c2cc(C(=O)NCc3cccc(Cl)c3)[nH]c2c1` [Compound 34, N-(3-chlorobenzyl)-4,6-dimethyl-1H-indole-2-carboxamide]: the MIC in [1], in experiment [2], in experiment [3], in experiment [4], in experiment [5] and in experiment [6] was > 32 µg/mL in each case. The figures for the MIC in [7] and in experiment [8] were > 5 µg/mL and > 20 µg/mL, respectively.

Take `Cc1cc(C)c2cc(C(=O)NCC34CC5CC(CC(C5)C3)C4)[nH]c2c1` [Compound 23, N-(1-(1-adamantyl)methyl)-4,6-dimethyl-1H-indole-2-carboxamide]: the MIC in experiment [1], in experiment [2], in experiment [3], in [4], in experiment [5] and in experiment [6] was > 32 µg/mL throughout. The MIC in [8] was > 20 µg/mL; in [9], > 32 µg/mL; in [10] it was > 32 µg/mL; in experiment [11], 1 µg/mL (≈ 2.97 µM).

Turning to `O=C(NC1CCCCCC1)c1cc2ccccc2[nH]1` [Compound 11, N-cycloheptyl-1H-indole-2-carboxamide], the MIC in [1], in experiment [2], in [3], in [4], in [5] and in [6] was > 32 µg/mL throughout. Moreover, the MIC in experiment [7] was > 5 µg/mL; in experiment [8] it was > 20 µg/mL.

Regarding `CCC12CC3CC(C1)CC(NC(=O)c1cc4c(C)cc(C)cc4[nH]1)(C3)C2` [Compound 21, N-(3-ethyl-1-adamantyl)-4,6-dimethyl-1H-indole-2-carboxamide], the MIC in experiment [1], in experiment [2], in experiment [3], in experiment [4], in experiment [5] and in [6] was > 32 µg/mL in each case. Further, the MIC in experiment [8] was > 20 µg/mL; in [9] it was > 32 µg/mL; in experiment [10], > 32 µg/mL; in [11], > 32 µg/mL.

With `Cc1cc(C)c2cc(C(=O)NC(C)C34CC5CC(CC(C5)C3)C4)[nH]c2c1` (centres unmarked) [Compound 22, N-(1-(1-adamantyl)ethyl)-4,6-dimethyl-1H-indole-2-carboxamide], the MIC in experiment [1] is 16 µg/mL (≈ 45.6 µM); in [2], > 32 µg/mL; in experiment [3], 8 µg/mL (≈ 22.8 µM); in experiment [4], 8 µg/mL (≈ 22.8 µM); in experiment [5] it was 16 µg/mL (≈ 45.6 µM); in experiment [6], 16 µg/mL (≈ 45.6 µM). For the same molecule, the MIC is > 20 µg/mL in [8], > 32 µg/mL in experiment [9], > 32 µg/mL in experiment [10] and > 32 µg/mL in experiment [11].

For the molecule `Cc1cc(C)c2cc(C(=O)NC3CCCCC3)[nH]c2c1` [Compound 27, N-cyclohexyl-4,6-dimethyl-1H-indole-2-carboxamide], the MIC in experiment [1] worked out at 0.5 µg/mL (≈ 1.85 µM); in [2], 0.25 µg/mL (≈ 0.925 µM); in experiment [3] it was 0.25 µg/mL (≈ 0.925 µM); in experiment [4], 0.25 µg/mL (≈ 0.925 µM); in experiment [5], 0.25 µg/mL (≈ 0.925 µM); in experiment [6], 0.25 µg/mL (≈ 0.925 µM). Further, the MIC in experiment [8] was 2.5 µg/mL (≈ 9.25 µM); in experiment [9], > 32 µg/mL; in experiment [10], > 32 µg/mL; in experiment [11] it was 1 to 2 µg/mL (≈ 3.7 to 7.4 µM).

For the molecule `CCCCCCCNC(=O)c1cc2ccccc2[nH]1` [Compound 17, N-heptyl-1H-indole-2-carboxamide], the MIC in [1], in experiment [2], in experiment [3], in [4], in experiment [5] and in experiment [6] was > 32 µg/mL each time. Besides, the MIC in experiment [7] is > 10 µg/mL; in experiment [8], > 25 µg/mL.

These data come from US10383848B2, “Indole-based therapeutics” (Creighton University, priority 2016, dated 2019).
